# Assay results: PubChem BioAssay (NCI)
# Where “and” joins values, the source holds several entries; their conditions need not be identical. Equal entries are not always repeated.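 Step 1: Grow cells in 96-well plates. Step 2: Expose to compound for 48 hours at 5 concentrations. Step 3: Interpolate endpoints linearly; if unreached, use highest concentration. Abbreviation: GI50, concentration required for 50% inhibition of growth. TGI marks complete inhibition of growth.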
# How the values were obtained:
# Assay in all cases: NCI tumour cell line growth inhibition, 48 h
# CAKI-1 renal = test system: CAKI-1 renal
# CCRF-CEM leukemia = test system: CCRF-CEM leukemia
# KM12 colon = test system: KM12 colon
# MOLT-4 leukemia = test system: MOLT-4 leukemia
# NCI/ADR-RES ovarian = test system: NCI/ADR-RES ovarian
# OVCAR-8 ovarian = test system: OVCAR-8 ovarian
# RPMI-8226 leukemia = test system: RPMI-8226 leukemia
# SNB-19 CNS = test system: SNB-19 CNS
# SR leukemia = test system: SR leukemia
# T-47D breast = test system: T-47D breast
# UACC-257 melanoma = test system: UACC-257 melanoma
# UACC-62 melanoma = test system: UACC-62 melanoma
smiles,measurement,setting,value
COC(=O)[C@@H]1[C@H](O)CC[C@H]2[C@@]1(C)CC[C@@H](C)[C@]2(COC(C)=O)CC(=O)c1ccoc1,TGI,CAKI-1 renal,> 50 µM
same,TGI,CCRF-CEM leukemia,> 50 µM
same,TGI,KM12 colon,> 50 µM
same,TGI,MOLT-4 leukemia,> 50 µM
same,TGI,NCI/ADR-RES ovarian,> 50 µM
same,TGI,OVCAR-8 ovarian,> 50 µM
same,TGI,RPMI-8226 leukemia,> 50 µM
same,TGI,SNB-19 CNS,> 50 µM
same,TGI,SR leukemia,> 50 µM
same,TGI,T-47D breast,> 50 µM
same,TGI,UACC-257 melanoma,> 50 µM
same,TGI,UACC-62 melanoma,> 50 µM
Oc1ccc(Cn2c(-c3ccc(O)cc3)nc3ccccc32)cc1,TGI,CAKI-1 renal,> 100 µM
same,TGI,CCRF-CEM leukemia,> 100 µM
same,TGI,KM12 colon,> 100 µM
same,TGI,MOLT-4 leukemia,> 100 µM
same,TGI,NCI/ADR-RES ovarian,> 100 µM
same,TGI,OVCAR-8 ovarian,> 100 µM
same,TGI,RPMI-8226 leukemia,> 100 µM
same,TGI,SNB-19 CNS,> 100 µM
same,TGI,SR leukemia,> 31.6 µM
same,TGI,T-47D breast,> 100 µM
same,TGI,UACC-257 melanoma,> 100 µM
same,TGI,UACC-62 melanoma,> 100 µM
CC(=O)Oc1cc(S(=O)(=O)Nc2n[nH]c(N)n2)c(S)cc1Cl,TGI,CAKI-1 renal,> 100 µM
same,TGI,CCRF-CEM leukemia,> 100 µM
same,TGI,KM12 colon,> 100 µM
same,TGI,MOLT-4 leukemia,> 100 µM
same,TGI,NCI/ADR-RES ovarian,> 100 µM
same,TGI,OVCAR-8 ovarian,> 100 µM
same,TGI,RPMI-8226 leukemia,> 100 µM
same,TGI,SNB-19 CNS,> 100 µM
same,TGI,SR leukemia,> 100 µM
same,TGI,T-47D breast,> 100 µM
same,TGI,UACC-257 melanoma,> 100 µM
same,TGI,UACC-62 melanoma,> 100 µM
O=c1c(Sc2ncccn2)c(Sc2ncccn2)cnn1CCl,TGI,CAKI-1 renal,5.89 µM
same,TGI,CCRF-CEM leukemia,7.68 µM
same,TGI,KM12 colon,29.1 µM
same,TGI,MOLT-4 leukemia,10.6 µM
same,TGI,NCI/ADR-RES ovarian,24.4 µM
same,TGI,OVCAR-8 ovarian,7.53 µM
same,TGI,RPMI-8226 leukemia,> 20.6 µM
same,TGI,SNB-19 CNS,32.8 µM
same,TGI,SR leukemia,12.4 µM
same,TGI,T-47D breast,14.2 µM
same,TGI,UACC-257 melanoma,6.77 µM
same,TGI,UACC-62 melanoma,19 µM
COc1ccc(N2C(=O)C3c4[nH]c5ccc(OCc6ccccc6)cc5c4C4CCC(C(C)C)CC4C3C2=O)cc1 (configuration not stated),TGI,CAKI-1 renal,> 59.6 µM
same,TGI,CCRF-CEM leukemia,31.3 µM
same,TGI,KM12 colon,> 100 µM
same,TGI,MOLT-4 leukemia,> 71.7 µM
same,TGI,NCI/ADR-RES ovarian,> 100 µM
same,TGI,OVCAR-8 ovarian,> 100 µM
same,TGI,RPMI-8226 leukemia,> 100 µM
same,TGI,SNB-19 CNS,34.9 µM
same,TGI,SR leukemia,22.9 µM
same,TGI,T-47D breast,> 100 µM
same,TGI,UACC-257 melanoma,> 100 µM
same,TGI,UACC-62 melanoma,> 51.7 µM
CN(C)C(=O)Oc1ccc(C(=S)Nc2ccccc2)cc1Br,TGI,CAKI-1 renal,> 100 µM
same,TGI,CCRF-CEM leukemia,48.6 µM
same,TGI,KM12 colon,51.6 µM
same,TGI,MOLT-4 leukemia,38.1 µM
same,TGI,NCI/ADR-RES ovarian,63.9 µM
same,TGI,OVCAR-8 ovarian,39.4 µM
same,TGI,RPMI-8226 leukemia,73.9 µM
same,TGI,SNB-19 CNS,> 100 µM
same,TGI,SR leukemia,63.3 µM
same,TGI,T-47D breast,80.9 µM
same,TGI,UACC-257 melanoma,74 µM
same,TGI,UACC-62 melanoma,74.4 µM
CN1CCCC(C(=O)OCC(=O)C2(O)CCC3C4CCC5=CC(=O)CCC5(C)C4C(O)CC32C)C1 (configuration not stated),TGI,CAKI-1 renal,> 65.8 µM
same,TGI,CCRF-CEM leukemia,35.6 µM
same,TGI,KM12 colon,> 69.7 µM
same,TGI,MOLT-4 leukemia,48.4 µM
same,TGI,NCI/ADR-RES ovarian,55.3 µM
same,TGI,OVCAR-8 ovarian,35.3 µM
same,TGI,RPMI-8226 leukemia,27.8 µM
same,TGI,SNB-19 CNS,30.9 µM
same,TGI,SR leukemia,4.47 µM
same,TGI,T-47D breast,34.5 µM
same,TGI,UACC-257 melanoma,38.2 µM
same,TGI,UACC-62 melanoma,37.7 µM
O=C(O)CO/N=C1/C(c2c(O)[nH]c3ccccc23)=Nc2ccccc21,TGI,CAKI-1 renal,> 100 µM
same,TGI,CCRF-CEM leukemia,> 100 µM
same,TGI,KM12 colon,> 100 µM
same,TGI,MOLT-4 leukemia,> 100 µM
same,TGI,NCI/ADR-RES ovarian,> 100 µM
same,TGI,OVCAR-8 ovarian,> 100 µM
same,TGI,RPMI-8226 leukemia,> 100 µM
same,TGI,SNB-19 CNS,> 100 µM
same,TGI,SR leukemia,> 100 µM
same,TGI,T-47D breast,> 100 µM
same,TGI,UACC-257 melanoma,> 100 µM
same,TGI,UACC-62 melanoma,> 100 µM
CCN(CC)CCC(=O)O[C@H]1CC[C@H](CC(C)[C@H]2CC(=O)C(C)C=C(C)[C@H](OC(=O)CCN(CC)CC)C(OC)C(=O)[C@@H](C)CC(C)/C=C/C=C/C=C(C)C(OC)CC3CC[C@H](C)[C@](O)(O3)C(=O)C(=O)N3CCCCC3C(=O)O2)CC1OC (some centres not stated),TGI,CAKI-1 renal,3.06 µM
same,TGI,CCRF-CEM leukemia,> 10 µM and 1.57 µM
same,TGI,KM12 colon,> 10 µM and 2.03 µM
same,GI50,MOLT-4 leukemia,25.5 nM
same,TGI,MOLT-4 leukemia,5.39 µM and 1.32 µM
same,TGI,NCI/ADR-RES ovarian,8.13 µM and 6.58 µM
same,GI50,OVCAR-8 ovarian,6.24 nM
same,TGI,OVCAR-8 ovarian,3.49 µM and 2.21 µM
same,GI50,RPMI-8226 leukemia,6.66 nM
same,TGI,RPMI-8226 leukemia,5.24 µM and 2.95 µM
same,GI50,SNB-19 CNS,35.8 nM
same,TGI,SNB-19 CNS,7.68 µM and 2.24 µM
same,TGI,SR leukemia,3.46 µM and 0.618 µM
same,GI50,T-47D breast,26.7 nM
same,TGI,T-47D breast,4.12 µM
same,TGI,UACC-257 melanoma,2.54 µM and 2.72 µM
same,TGI,UACC-62 melanoma,1.99 µM
CC(=O)NC1C(OCc2ccccc2)OC(CO)C(O)C1OCC(=O)N1CCCC1C(=O)NC(CCC(=O)NCCCCCNc1c2ccccc2nc2cccc([N+](=O)[O-])c12)C(N)=O (configuration not stated),TGI,CAKI-1 renal,0.134 µM
same,TGI,CCRF-CEM leukemia,1.08 µM
same,TGI,KM12 colon,0.13 µM
same,TGI,MOLT-4 leukemia,4.55 µM
same,TGI,NCI/ADR-RES ovarian,1.09 µM
same,TGI,OVCAR-8 ovarian,0.0817 µM
same,TGI,RPMI-8226 leukemia,0.789 µM
same,TGI,SNB-19 CNS,0.493 µM
same,TGI,SR leukemia,5.01 µM
same,TGI,T-47D breast,8.41 µM
same,TGI,UACC-257 melanoma,0.327 µM
same,TGI,UACC-62 melanoma,0.0751 µM
Oc1ccccc1-n1nc2ccc3nonc3c2n1,TGI,CAKI-1 renal,> 100 µM
same,TGI,CCRF-CEM leukemia,> 100 µM
same,TGI,KM12 colon,> 100 µM
same,TGI,MOLT-4 leukemia,> 100 µM
same,TGI,NCI/ADR-RES ovarian,> 100 µM
same,TGI,OVCAR-8 ovarian,> 100 µM
same,TGI,RPMI-8226 leukemia,> 100 µM
same,TGI,SNB-19 CNS,> 100 µM
same,TGI,SR leukemia,> 100 µM
same,TGI,T-47D breast,> 100 µM
same,TGI,UACC-257 melanoma,> 100 µM
same,TGI,UACC-62 melanoma,> 100 µM
S=C(Nc1cccc(C2(N3CCCCC3)CCCCC2)c1)Nc1cccc(C2(N3CCCCC3)CCCCC2)c1,TGI,CAKI-1 renal,> 100 µM
same,TGI,CCRF-CEM leukemia,34 µM
same,TGI,KM12 colon,33.2 µM
same,TGI,MOLT-4 leukemia,42.8 µM
same,TGI,NCI/ADR-RES ovarian,> 100 µM
same,TGI,OVCAR-8 ovarian,59.2 µM
same,TGI,RPMI-8226 leukemia,30.7 µM
same,TGI,SNB-19 CNS,> 100 µM
same,TGI,SR leukemia,31.6 µM
same,TGI,T-47D breast,36.6 µM
same,TGI,UACC-257 melanoma,33.4 µM
same,TGI,UACC-62 melanoma,33.3 µM
C=CC[C@H]1[C@H](O[Si](C)(C)C(C)(C)C)C=CC(=O)[C@@H]1CC(=O)OCC,TGI,CAKI-1 renal,25.1 µM
same,TGI,CCRF-CEM leukemia,29.9 µM
same,TGI,KM12 colon,27.2 µM
same,TGI,MOLT-4 leukemia,48 µM
same,TGI,NCI/ADR-RES ovarian,24.4 µM
same,TGI,OVCAR-8 ovarian,31.6 µM
same,TGI,RPMI-8226 leukemia,12.2 µM
same,TGI,SNB-19 CNS,25.7 µM
same,TGI,SR leukemia,41.7 µM
same,TGI,T-47D breast,24.7 µM
same,TGI,UACC-257 melanoma,17.9 µM
same,TGI,UACC-62 melanoma,24.1 µM
COC(=O)CNCC1OC2OC(C)(C)OC2C1N=[N+]=[N-] (configuration not stated),TGI,CAKI-1 renal,> 100 µM
same,TGI,CCRF-CEM leukemia,> 100 µM
same,TGI,KM12 colon,> 100 µM
same,TGI,MOLT-4 leukemia,> 100 µM
same,TGI,NCI/ADR-RES ovarian,> 100 µM
same,TGI,OVCAR-8 ovarian,> 100 µM
same,TGI,RPMI-8226 leukemia,> 100 µM
same,TGI,SNB-19 CNS,> 100 µM
same,TGI,SR leukemia,> 100 µM
same,TGI,T-47D breast,> 100 µM
same,TGI,UACC-257 melanoma,> 100 µM
same,TGI,UACC-62 melanoma,> 100 µM
C=CCC1C2CCC(O[Si](C(C)C)(C(C)C)C(C)C)(C(C(=O)OC)C2)C1O (configuration not stated),TGI,CAKI-1 renal,> 100 µM
same,TGI,CCRF-CEM leukemia,> 100 µM
same,TGI,KM12 colon,> 100 µM
same,TGI,MOLT-4 leukemia,> 100 µM
same,TGI,NCI/ADR-RES ovarian,> 100 µM
same,TGI,OVCAR-8 ovarian,> 100 µM
same,TGI,RPMI-8226 leukemia,> 100 µM
same,TGI,SNB-19 CNS,> 100 µM
same,TGI,SR leukemia,> 100 µM
same,TGI,T-47D breast,> 100 µM
same,TGI,UACC-257 melanoma,> 100 µM
same,TGI,UACC-62 melanoma,> 100 µM
COC(=O)CCC(C)[C@H]1CCC2C3C(C[C@H](OC(C)=O)[C@@]21C)[C@@]1(C)CCC2(C[C@H]1C[C@H]3OC(C)=O)OOC1(CCCCC1)OO2 (some centres not stated),TGI,CAKI-1 renal,> 100 µM
same,TGI,CCRF-CEM leukemia,> 100 µM
same,TGI,KM12 colon,> 100 µM
same,TGI,MOLT-4 leukemia,> 100 µM
same,TGI,NCI/ADR-RES ovarian,> 100 µM
same,TGI,OVCAR-8 ovarian,> 100 µM
same,TGI,RPMI-8226 leukemia,6.43 µM
same,TGI,SNB-19 CNS,> 100 µM
same,TGI,SR leukemia,> 100 µM
same,TGI,T-47D breast,> 100 µM
same,TGI,UACC-257 melanoma,> 100 µM
Cc1ccc([N+](=O)[O-])c2c(NCCC[N+](C)(C)[O-])ccnc12,TGI,CAKI-1 renal,> 100 µM
same,TGI,CCRF-CEM leukemia,> 100 µM
same,TGI,KM12 colon,> 100 µM
same,TGI,MOLT-4 leukemia,> 100 µM
same,TGI,NCI/ADR-RES ovarian,> 100 µM
same,TGI,OVCAR-8 ovarian,> 100 µM
same,TGI,RPMI-8226 leukemia,> 100 µM
same,TGI,SNB-19 CNS,> 100 µM
same,TGI,SR leukemia,> 100 µM
same,TGI,T-47D breast,> 100 µM
same,TGI,UACC-257 melanoma,69.8 µM
